In US12172989B2, “Histone acetyltransferase (HAT) inhibitor and use thereof” (SHANGHAI INSTITUTE OF MATERIA MEDICA, CHINESE ACADEMY OF …, priority 2018, dated 2024):

Legend:
[1] = target: T1, histone acetyltransferase p300 (Homo sapiens, UniProt Q09472); experiment: Histone acetyltransferase (p300) activity assay (radioisotope, [3H]-Ac-CoA); type: biochemical; conditions: p300 0.05 nM; histone peptide 600 nM, [3H]-Ac-CoA 250 nM; 60 min at room temperature; read-out: Inhibition rate IC50
T1 construct: purchased BPS Corporation 50071
T1 sequence (Q09472 1284-1673 limits assumed): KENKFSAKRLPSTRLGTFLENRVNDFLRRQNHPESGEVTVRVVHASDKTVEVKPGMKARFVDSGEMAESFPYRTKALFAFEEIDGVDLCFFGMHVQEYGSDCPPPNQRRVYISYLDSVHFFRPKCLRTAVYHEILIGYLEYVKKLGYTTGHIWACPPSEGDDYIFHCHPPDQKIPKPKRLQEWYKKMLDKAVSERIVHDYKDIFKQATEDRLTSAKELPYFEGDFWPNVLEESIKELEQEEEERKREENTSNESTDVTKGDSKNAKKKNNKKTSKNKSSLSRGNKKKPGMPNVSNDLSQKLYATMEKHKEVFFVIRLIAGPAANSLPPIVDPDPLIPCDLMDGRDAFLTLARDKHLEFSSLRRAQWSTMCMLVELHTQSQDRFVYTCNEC
Description: The reaction was finally terminated with Ac-CoA (Sigma, Cat. No. A2056) without isotope labeling. If the activity of the acetyltransferase p300 was inhibited, the isotope signal cannot be detected on the substrate polypeptide. Therefore, the inhibitory activity of the compound against the acetyltransferase p300 was evaluated.
In the enzyme reaction system, 200 nL of a diluted compound (100% DMSO) was first transferred to a test plate using Echo, where the final concentration of the compound in the enzyme reaction system ranges from 0.25 to 5000 nM. Then 10 μL/well of p300 protein (final concentration of 0.05 nM) was transferred therein, and incubated with the compound for 15 min at room temperature. Then 10 μL/well of a substrate mixture (final concentrations of histone peptide and [^3H]—Ac-CoA were 600 nM and 250 nM, respectively) was added to start the enzyme-catalyzed reaction, and incubated at room temperature for 60 min. Then 10 µL/well of a 250 μM cold Ac-CoA solution was added to stop the reaction. Finally 25 μL/well of the reaction solution was transferred to a 384-well Flashplate (Perkin Elmer, Cat. No. SMP410A001PK), and incubated at room temperature for 1 h. The resultant was washed with double distilled water+0.1% Tween-20 three times. The signal value was read by using Microbeta. The data was analyzed by using GraphPad Prism 5.0 software to obtain IC50.

[2] = tested on: human mantle cell lymphoma (MCL) cell line MAVER-1; experiment: Cell growth inhibition experiment (CellTiter-Glo), MAVER-1; type: cell-based; conditions: MAVER-1 cells treated with the compound for 5 days
Description: The human mantle cell lymphoma (MCL) cell line MAVER-1 (from ATCC, CRL-3008) was cultured with RPMI 1640 medium (Gibco, available from Life Technologies Corporation, 22400-089) containing […] (Gibco, available from Life Technologies, 10099-141) and 1% antibiotics (penicillin and streptomycin, available from Life Technologies Corporation, 10378016) in a CO2 cell incubator (37° C., 5% CO2). In the cell growth inhibition experiment, MAVER-1 cells in exponential growth phase were seeded on a 96-well plate (purchased from Corning Company, 3599) in a volume of 100 μL/well and a cell density of 1*10E5 cells/well. After seeded, the plate was placed in a CO2 incubator to culture for 1 h. 100 μL of a compound at different concentrations diluted in 3-fold gradient or DMSO were added in a 96-well plate containing the cells. The final concentration of the compound ranges from 0.3 to 10000 nM, and the final concentration of DMSO is 0.05% as control group. The cells were treated with the compound for 5 days. Cell viability was measured using CellTiter-Glo reagent (purchased from Promega, G7572): the cells treated with the compound for 5 days was added with CellTiter-Glo reagent at 20 μL/well, incubated at room temperature for 10 min, transferred to a white 96-well plate (OptiPlate-96, purchased from PerkinElmer, 605299) by 80 μL. Subsequently, the luminescence signal was detected by using a multifunctional microplate reader EnVision (purchased from PerkinElmer) at a wavelength of 400-700 nm. The data was analyzed by using GraphPad Prism 5.0 software to obtain IC50.

[3] = tested on: Human castration resistant prostate cancer cell line 22Rv1; experiment: Cell growth inhibition experiment (CellTiter-Glo), 22Rv1; type: cell-based; conditions: 22Rv1 cells treated with the compound for 5 days
Description: (§1) Human castration resistant prostate cancer cell line 22Rv1 and LNCaP clone FGC (22Rv1 cell line was from ATCC, CRL-2505, LNCaP clone FGC cell line was purchased from Cell Bank of the Chinese Academy of Sciences) were cultured with RPMI 1640 medium (Gibco, available from Life Technologies Corporation, 22400-089) containing 10% fetal bovine serum (Gibco, available from Life Technologies, 10099-141) and 1% antibiotics (penicillin and streptomycin, available from Life Technologies Corporation, 10378016) in a CO2 cell incubator (37° C., 5% CO2). In the cell growth inhibition experiment, 22Rv1 and LNCaP clone FGC cells in exponential growth phase were seeded on a 96-well plate (purchased from Corning Company, 3599) with a volume of 150 μL/well and a cell density of 1,500 cells/well. After seeded, the plate was placed in a CO2 incubator to incubate overnight to allow the cells to adhere. On the next day, 50 μL of a compound at different concentrations diluted in 3-fold gradient or DMSO were added in a 96-well plate containing the cells. The final concentration of the compound ranges from 0.3 to 10000 nM, and the final concentration of DMSO is 0.05% as control group. The cells were treated by the compound for 5 days. Cell viability was measured using CellTiter-Glo reagent (purchased from Promega, G7572): the cell treated with the compound for 5 days was added with CellTiter-Glo reagent at 40 μL/well, incubated at room temperature for 10 min, transferred to a white 96-well plate (OptiPlate-96, purchased from PerkinElmer, 605299) by 70 μL. Subsequently, the luminescence signal was detected using a multifunctional microplate reader EnVision (purchased from PerkinElmer) at a wavelength of 400-700 nm. The data was analyzed by using GraphPad Prism 5.0 software to obtain IC50.

[4] = tested on: Human castration resistant prostate cancer cell line LNCaP clone FGC; experiment: Cell growth inhibition experiment (CellTiter-Glo), LNCaP clone FGC; type: cell-based; conditions: LNCaP clone FGC cells treated with the compound for 5 days
Description: as §1

Row | Structure (SMILES) | IC50 [1] [nM] | IC50 ([2]; Homo sapiens, Maver1, 120 h) [nM] | IC50 ([3]; Homo sapiens, 120 h) [nM] | IC50 ([4]; Homo sapiens, 120 h) [nM] | IC50 [2] [nM] | IC50 [3] [nM] | IC50 [4] [nM]
1 | CNC(=O)Nc1ccc2c(c1)CC[C@]21OC(=O)N(CC(=O)N2Cc3ccc(F)cc3CC[C@H]2C(F)(F)F)C1=O [SYY-B031-1] | 1.8 | 61 | 210 | 91 | – | – | –
2 | CNC(=O)Nc1ccc2c(c1)CC[C@@]21OC(=O)N(CC(=O)N2Cc3ccc(F)cc3CC[C@H]2C2CC2)C1=O [SYY-B025-2] | 1.1 | 9 | 9 | 11 | – | – | –
3 | CNC(=O)Nc1ccc2c(c1)CC[C@@]21OC(=O)N(CC(=O)N2Cc3ccc(F)cc3CC[C@@H]2C2CC2)C1=O [SYY-B026-2] | 18 | 254 | 358 | 132 | – | – | –
4 | CCC[C@H]1CCc2ccccc2CN1C(=O)CN1C(=O)O[C@@]2(CCc3cc(NC(=O)NC)ccc32)C1=O [SYY-B024-2] | 24 | 116 | 77 | 53 | – | – | –
5 | CNC(=O)Nc1ccc2c(c1)CC[C@]21OC(=O)N(CC(=O)N2Cc3ccc(F)cc3CC[C@H]2C2CC2)C1=O [SYY-B025-1] | 1.6 | 44 | 79 | 67 | – | – | –
6 | CNC(=O)Nc1ccc2c(c1)CC[C@]21OC(=O)N(CC(=O)N2Cc3ccc(F)cc3CC[C@H]2C)C1=O [SYY-B021-1] | 3 | 32 | 107 | 63 | – | – | –
7 | CNC(=O)Nc1ccc2c(c1)CC[C@@]21OC(=O)N(CC(=O)N(Cc2ccc(F)cc2)[C@@H](C)C(F)(F)F)C1=O [Example A-485, reference compound] | – | – | – | – | 206 | 384 | 215
8 | CNC(=O)Nc1ccc2c(c1)CC[C@@]21OC(=O)N(CC(=O)N2Cc3ccc(F)cc3CC[C@H]2C)C1=O [SYY-B021-2] | 3 | 22 | 24 | 13 | – | – | –
9 | CNC(=O)Nc1ccc2c(c1)CCC21NC(=O)N(CC(=O)N2Cc3ccc(F)cc3CC[C@H]2C2CC2)C1=O (stereo partly shown) [SYY-B033] | 4.8 | – | 127 | 78 | – | – | –
10 | CNC(=O)Nc1ccc2c(c1)CC[C@]21OC(=O)N(CC(=O)N2Cc3ccccc3CC[C@H]2C)C1=O [SYY-B015-1] | 12 | 104 | 345 | 168 | – | – | –
11 | NC1(C(=O)Nc2ccc3c(c2)CC[C@@]32OC(=O)N(CC(=O)N3Cc4ccc(F)cc4CC[C@H]3C3CC3)C2=O)CCC1 [SYY-B039-2] | 1.2 | – | 36 | 15 | – | – | –
12 | Cn1cc(-c2ccc3c(c2)CC[C@]32OC(=O)N(CC(=O)N3Cc4ccc(F)cc4CC[C@H]3C3CC3)C2=O)cn1 [SYY-B041-1] | 4.3 | – | < 100 | < 100 | – | – | –
13 | CNC(=O)Nc1ccc2c(c1)CC[C@]21OC(=O)N(CC(=O)N2Cc3ccccc3CC[C@H]2C(C)C)C1=O [SYY-B019-1] | 2.7 | 40 | 205 | 186 | – | – | –
14 | Cn1cc(-c2ccc3c(c2)CC[C@@]32OC(=O)N(CC(=O)N3Cc4ccc(F)cc4CC[C@H]3C3CC3)C2=O)cn1 [SYY-B041-2] | 3.4 | – | < 100 | < 100 | – | – | –

Continued, values first:

Row | IC50 [1] [nM] | IC50 ([2]; Homo sapiens, Maver1, 120 h) [nM] | IC50 ([3]; Homo sapiens, 120 h) [nM] | IC50 ([4]; Homo sapiens, 120 h) [nM] | IC50 [2] [nM] | IC50 [3] [nM] | IC50 [4] [nM] | Structure (SMILES)
15 | – | 112 | 258 | 164 | – | – | – | CNC(=O)Nc1ccc2c(c1)CCC21OC(=O)N(CC(=O)N2Cc3ccccc3CCC2C)C1=O (stereo not shown) [SYY-B003]
16 | 3.7 | 18 | 33 | 15 | – | – | – | CNC(=O)Nc1ccc2c(c1)CC[C@@]21OC(=O)N(CC(=O)N2Cc3ccccc3CC[C@H]2C)C1=O [SYY-B015-2]
17 | 1 | – | 13 | 6 | – | – | – | CC(C)(N)C(=O)Nc1ccc2c(c1)CC[C@@]21OC(=O)N(CC(=O)N2Cc3ccc(F)cc3CC[C@H]2C2CC2)C1=O [SYY-B038-1]
18 | 2 | 12 | 3 | 4 | – | – | – | CCC[C@@H]1CCc2ccccc2CN1C(=O)CN1C(=O)O[C@@]2(CCc3cc(NC(=O)NC)ccc32)C1=O [SYY-B023-2]
19 | 4 | 23 | 50 | 65 | – | – | – | CCC[C@@H]1CCc2ccccc2CN1C(=O)CN1C(=O)O[C@]2(CCc3cc(NC(=O)NC)ccc32)C1=O [SYY-B023-1]
20 | 2 | 17 | 5 | 9 | – | – | – | CNC(=O)Nc1ccc2c(c1)CC[C@@]21OC(=O)N(CC(=O)N2Cc3ccccc3CC[C@H]2C(C)C)C1=O [SYY-B019-2]
21 | 12 | – | – | 78 | – | – | – | CNC(=O)Nc1ccc2c(c1)CC[C@@]21OC(=O)N(CC(=O)N2Cc3ccccc3OC[C@H]2C)C1=O [SYY-B014-2]
22 | 4.1 | 66 | 146 | 82 | – | – | – | CNC(=O)Nc1ccc2c(c1)CC[C@]21OC(=O)N(CC(=O)N2Cc3cc(F)ccc3OC[C@H]2C2CC2)C1=O [SYY-B029-1]
23 | 1.4 | 15 | – | 13 | – | – | – | CNC(=O)Nc1ccc2c(c1)CC[C@@]21OC(=O)N(CC(=O)N2Cc3cc(F)ccc3OC[C@H]2C2CC2)C1=O [SYY-B029-2]
24 | 1.5 | – | 64 | 13 | – | – | – | CC(C)(N)C(=O)Nc1ccc2c(c1)CC[C@]21OC(=O)N(CC(=O)N2Cc3ccc(F)cc3CC[C@H]2C2CC2)C1=O [SYY-B037-1]
25 | 9.1 | – | 40 | 48 | – | – | – | CNC(=O)Nc1ccc2c(c1)CC[C@]21OC(=O)N(CC(=O)N2Cc3ccccc3CC[C@H]2C(F)(F)F)C1=O [SYY-B027-1]
26 | 1.9 | – | 74 | 52 | – | – | – | NC1(C(=O)Nc2ccc3c(c2)CC[C@]32OC(=O)N(CC(=O)N3Cc4ccc(F)cc4CC[C@H]3C3CC3)C2=O)CCC1 [SYY-B039-1]
27 | < 20 | < 10 | < 50 | – | – | – | – | Cn1cc(-c2ccc3c(c2)CCC32NC(=O)N(CC(=O)N3Cc4cc(F)ccc4OC[C@H]3C(F)(F)F)C2=O)cn1 (stereo partly shown) [SYY-B085]
